The text below walks through data of patent publication US12466834B2, “Imidazodiazepinediones and methods of use thereof” (GFB (ABC), LLC, priority 2018, dated 2025).

Holding throughout (format): cell-based
Test [1] has as its target T1, human TRPC5 (Homo sapiens, UniProt Q9UL62).
T1 construct: expressed in transfected cells
T1 sequence (Q9UL62 1-973): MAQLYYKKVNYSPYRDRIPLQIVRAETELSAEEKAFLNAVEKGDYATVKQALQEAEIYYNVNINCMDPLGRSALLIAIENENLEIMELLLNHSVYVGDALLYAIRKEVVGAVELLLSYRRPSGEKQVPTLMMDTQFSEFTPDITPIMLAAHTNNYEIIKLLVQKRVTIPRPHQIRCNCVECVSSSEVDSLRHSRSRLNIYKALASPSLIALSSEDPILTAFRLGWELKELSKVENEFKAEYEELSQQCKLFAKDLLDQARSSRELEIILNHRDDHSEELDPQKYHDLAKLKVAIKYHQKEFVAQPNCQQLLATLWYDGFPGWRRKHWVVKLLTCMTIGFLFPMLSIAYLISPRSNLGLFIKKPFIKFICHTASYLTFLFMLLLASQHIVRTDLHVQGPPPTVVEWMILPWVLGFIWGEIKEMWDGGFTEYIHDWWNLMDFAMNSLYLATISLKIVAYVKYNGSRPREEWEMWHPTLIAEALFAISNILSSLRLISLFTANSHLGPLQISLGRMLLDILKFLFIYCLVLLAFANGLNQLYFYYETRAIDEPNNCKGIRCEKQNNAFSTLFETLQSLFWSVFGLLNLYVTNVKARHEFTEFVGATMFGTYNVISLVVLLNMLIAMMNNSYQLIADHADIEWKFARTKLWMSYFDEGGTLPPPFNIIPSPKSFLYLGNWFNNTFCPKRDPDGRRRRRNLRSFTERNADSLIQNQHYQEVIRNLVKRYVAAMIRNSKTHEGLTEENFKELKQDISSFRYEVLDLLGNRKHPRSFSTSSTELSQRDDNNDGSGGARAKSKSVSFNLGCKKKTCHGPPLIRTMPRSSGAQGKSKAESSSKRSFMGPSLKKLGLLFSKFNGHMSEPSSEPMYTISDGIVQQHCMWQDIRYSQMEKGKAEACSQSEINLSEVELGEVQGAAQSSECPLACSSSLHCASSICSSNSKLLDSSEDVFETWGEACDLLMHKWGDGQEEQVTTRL
The experiment in a line: FLIPR calcium assay, inhibition of riluzole-activated TRPC5 calcium response. The settings on record: ICLN-1633 cells; riluzole 30 μM stimulation; Fluo-4 calcium response; read-out: Inhibitor Potency Range (FLIPR). The protocol:
(§1) ICLN-1633 cells (HEK-TREx hTRPC5) expressing TRPC5 were generated as follows. Commercially available HekTrex-293 cells were seeded at 0.7×10^6 cells/well in a 1×6-well plate 24 hrs prior to transfection using 2 mL cell growth media containing no antibiotics (1× DMEM/high glucose (Hyclone #SH30022.02); 10% fetal bovine serum (Sigma) 2 mM sodium pyruvate, 10 mM HEPES). The human TRPC5 coding sequence (NM_012471 with a silent T478C mutation) was cloned into pcDNA5/TO (Invitrogen; Cat No. V103320) using hygromycin as the resistance gene and the plasmid (SEQ ID NO:1) propagated using T-Rex-293 cells (Invitrogen; Cat No. R71007) following manufacturer's directions. On day 2, 2 μg of plasmid DNA plus 6 μl of Xtreme-GENE HP reagent in Optimem (200 μl total volume) was prepared and incubated for 15 min at room temperature. This plasmid solution was then gently overlayed dropwise onto each well and the plate was gently swirled to mix complex with the media for approximately 30 seconds. Transfected cells were incubated at 37° C. in a 10% CO2 incubator for 24 hrs. The transfected cells were harvested and transferred into 2×150 mm dishes containing cell growth media with no antibiotics at 37° C.
(§2) Compounds were made up to, or supplied as a 10 mM stock solution generally using DMSO as the vehicle. 10-point dose response curves were generated using the Echo-550 acoustic dispenser. Compound source plates were made by serially diluting compound stocks to create 10 mM, 1 mM, and 0.1 mM solutions in DMSO into Echo certified LDV plates. The Echo then serially spotted 100% DMSO stock solutions into source dose response plates to generate a 4-fold dilution scheme. 100% DMSO was added to the spotted dose response plates to bring the final volume to 5 μl. 300 nl of the dose response stock plate was then spotted into pre-incubation and stimulation assay plates. 50 μl of pre-incubation buffer and 100 μl of stimulation buffer was then added to the plates resulting in a final assay test concentration range of 30 μM to 0.0001 μM with a final DMSO concentration of 0.3%.
(§3) Human ICLN-1633 cells expressing were plated onto 384 well, black poly-D-lysine-coated microplates and maintained in TRPC5 growth media the day prior to use for experiments. TRPC5 expression was induced by the application of 1 μg/mL tetracycline at the time of plating. Media was removed from the plates and 10 μl of 4 μM of Fluo-4 AM (mixed with equal volume of Pluronic F-127) in Earls's Balanced Salt Solution (EBSS) was added to the cells. Cells were incubated at room temperature, protected from light, for 60-90 minutes. After the incubation period, the dye was removed and replaced with 10 μl of EBSS. Cell, pre-incubation and stimulation plates were loaded onto the FLIPR-II and the assay was initiated. The FLIPR measured a 10 second baseline and then added 10 μl of 2× compounds (or controls). Changes in fluorescence were monitored for an additional 5 minutes. After the 5 minute pre-incubation, 20 μl of 2× riluzole (with 1× compound or controls) was added to the cell plate. The final riluzole stimulation concentration in the assay was 30 μM. After the riluzole addition, changes in fluorescence were monitored for an additional 5 minutes. Reduction in the riluzole-activated calcium response relative to control wells was reported as inhibition. A compound-mediated increase in the riluzole response relative to control riluzole response (no test agent present) with no enhancement of calcium entry during preincubation phase was reported as an agonist response.
Compound inhibition of TRPC5 calcium response was determined as follows. After the riluzole addition, fluorescence was monitored for a 5-minute period. For inhibition, the maximum relative fluorescence response (minus the control response of 1 μM of an internal control compound known to maximally block TRPC5 calcium response, the “REF INHIB” in the formula below) was captured and exported from the FLIPR. […]

Test [2] has as its target T1, human TRPC5. The experiment in a line: Automated patch clamp assay (QPatch), antagonist mode. The settings on record: HEK-TREx hTRPC5 cells; channel activated with Rosiglitazone 30 μM; normalised to ML-204 block; read-out: Qpatch Potency Range. The protocol:
as §1
The next day selection was initiated to generate a stable pool by adding cell growth media containing 150 μg/mL Hygromycin and 5 μg/mL Blasticidin and cells were allowed to grow. Media with the selection agent was changed every 1-2 days as needed to remove dead cells. After 7 days, the hygromycin concentration was reduced to 75 μg/mL and cells growth was allowed to continue.
Single clones were selected as follows. The stable pool was diluted to 10 cells/mL and seeded (100 μl/well) into 24×96 well plates (˜1 cell/well) and allowed to grow for 7 days in cell growth media. Fresh media (100 μl) was added and the cells allowed to grow for another 1-2 weeks and then stored frozen or used immediately.
The automated electrophysiological assay was carried out at room temperature. On the day of the experiment, TRPC5 cells were cultured according to our Standard Operating Procedure. Briefly, cells were harvested using TrypLE™ Express, re-suspended in serum free medium, added to the automated platform and used within 0.5-3 hours. Internal and external physiological solutions were freshly prepared prior to the assay. The external solution contained: 145 mM NaCl, 4 mM KCl, 2 mM CaCl2, 1 mM MgCl2, 10 mM HEPES, 10 mM glucose, pH 7.4 with NaOH and 310 mOsm/L. The internal solution contained 120 mM L-aspartic acid, 120 mM CsOH·H2O, 20 mM CsCl, 2 mM MgCl2, 8.8 mM CaCl2, 10 mM EGTA, 10 mM HEPES and 2 mM Na2ATP; pH 7.2 with CsOH and 330 mOsm/L. The free internal Ca^2+ concentration was buffered to 1 μM, according to the WCabuf software. The automated electrophysiological platform QPatch 16 from Sophion (Denmark) was used to carry out the compounds profiling. The series resistance and quality of seals were continuously monitored during the experiments. Data were analyzed using Sophion QPatch assay software 5.6 (Odense). Data were normalized using the maximum activation obtained during the pre-compound agonist application as the top value (1.0) and maximum inhibition induced by ML-204 as the bottom value (0.0). IC50 values were calculated using a least squares regression algorithm (Hill equation).
To monitor the ion currents, a voltage ramp from −100 mV to +100 mV, over 300 ms, was applied every 10 seconds, from a holding potential of −60 mV. Antagonist-mode: After recording for a minimum of 60 seconds control period, the EC60 concentration of the TRPC5 agonist, Rosiglitazone (30 μM), was applied to activate the channel. After reaching steady-state, co-application of increasing concentrations of test compound were applied followed by two applications of Rosiglitazone EC60 and a saturating concentration of the specific blocker ML-204 (100 μM).
A general note: In patch-clamp work, channel activity is measured electrically.

Test [3] has as its target T1, human TRPC5. The test is described as follows: FLIPR calcium assay, compound activation (agonism) of TRPC5 calcium response. The conditions noted are these: ICLN-1633 cells, Fluo-4 calcium response; for EC50: read-out: Agonist Potency Range (FLIPR). Further details: key to Agonist Potency Range (FLIPR): A=0.001-1 μM; B=1-10 μM; C=>1 μM; D=tested with a positive result for agonism, but EC50 not calculated. The protocol:
as §1, §2, §3
Compound activation (agonism) of TRPC5 calcium response was determined as follows. After the initial compound addition, fluorescence was monitored for 5 minutes. The maximum relative fluorescence response (minus the control response of EBSS buffer alone) is captured and exported from the FLIPR. Compound activation is calculated using the following formula: […]

On to `C[C@H]1C(=O)N(C)c2nc(Oc3cccc(F)c3)n(Cc3ccc(Cl)cc3)c2C(=O)N1CCCO` (single isomer, unassigned) [Compound 20], for which the IC50 at human TRPC5 [1] lay in the range of 0.001 to 1 µM; on human TRPC5 [2] it was 1000 to 30000 nM.

In the case of `CCCCn1c(Oc2cccc(F)c2)nc2c1C(=O)N(CCCO)C(=O)[C@@H]1CCCN21` (single isomer, unassigned) [Compound 24], the IC50 on human TRPC5 [1] was in the range of 0.001 to 1 µM; on human TRPC5 [2], 1 to 1000 nM.

As to `CCCCn1c(Oc2cccc(F)c2)nc2c1C(=O)N(CCCO)C(=O)[C@H]1CCCN21` (single isomer, unassigned) [Compound 25], the “Agonist Potency Range (FLIPR)” value at human TRPC5 [3] is given as “D”. In addition, at human TRPC5 [1], the IC50 is above 10 µM.

Regarding `CN1C(=O)CN(CCCO)C(=O)c2c1nc(Oc1cccc(OC(F)(F)F)c1)n2Cc1ccc(Cl)cc1` [Compound 2, 1-[(4-chlorophenyl)methyl]-7-(3-hydroxypropyl)-4-methyl-2-[3-(trifluoromethoxy)phenoxy]-1H,4H,5H,6H,7H,8H-imidazo[4,5-e][1,4]diazepine-5,8-dione], the IC50 at human TRPC5 [1] lay within 1 to 10 µM; on human TRPC5 [2] it was 1000 to 30000 nM.

On to `CN1C(=O)CN(CC(F)(F)CO)C(=O)c2c1nc(Oc1cccc(OC(F)(F)F)c1)n2Cc1ccc(Cl)cc1` [Compound 11], for which the IC50 is 1 to 10 µM on human TRPC5 [1] and above 30000 nM on human TRPC5 [2].

Regarding `O=C1c2c(nc(Oc3cccc(F)c3)n2Cc2ccc(Cl)cc2)N2CCC[C@@H]2C(=O)N1CCCO` [Compound 27], the EC50 on human TRPC5 [3] was 1 to 1000 nM. Further, on human TRPC5 [1], the IC50 was above 10 µM.

As for `CC(C)Oc1nc2c(n1Cc1ccc(Cl)cc1)C(=O)N(CCCO)C(=O)[C@@H]1CCCN21` [Compound 28], at human TRPC5 [3], the EC50 is 1 to 1000 nM. Besides, on human TRPC5 [1], the IC50 is above 10 µM.

With `CC(C)Oc1nc2c(n1Cc1ccc(Cl)cc1)C(=O)N(CCCO)C(=O)[C@H]1CCCN21` [Compound 29], the EC50 on human TRPC5 [3] was 1000 to 10000 nM. For the same compound, on human TRPC5 [1], the IC50 is above 10 µM.

For the compound `CCCOc1nc2c(n1Cc1ccc(Cl)cc1)C(=O)N(CCCO)C(=O)[C@H]1CCCN21` [Compound 30], the EC50 at human TRPC5 [3] was 1000 to 10000 nM. The IC50 at human TRPC5 [1] was above 10 µM.

Take `CCCOc1nc2c(n1Cc1ccc(Cl)cc1)C(=O)N(CCCO)C(=O)[C@@H]1CCCN21` [Compound 31]: at human TRPC5 [3], the EC50 was 1 to 1000 nM. Also, on human TRPC5 [1], the IC50 is above 10 µM.
